Results taken from ChEMBL document CHEMBL1140598, “A review of anti-infective and anti-inflammatory chalcones” (Eur J Med Chem, 2007).
pIC50: −log10 of the molar value. Converted amounts (≈) assume the structure as drawn.

What was measured:
[1] = tested on: Mycobacterium tuberculosis; assay: Antibacterial activity against Mycobacterium tuberculosis H37Rv at 12.5 ug/mL; type: functional
Diaporthe longicolla = assay: Antifungal activity against Phomopsis longicolla Hobbs CE117; type: functional
Colletotrichum truncatum [2] = assay: Antifungal activity against Colletotrichum truncatum CE175; type: functional, Glomerella truncata
Neutrophil [3] = assay: Inhibition of fMLP/CB-stimulated release of beta-glucuronidase in rat neutrophils; type: functional, cell-based
Neutrophil [4] = assay: Inhibition of fMLP/CB-stimulated release of lysozyme in rat neutrophils; type: functional, cell-based
[5] = tested on: Staphylococcus haemolyticus; assay: Antibacterial activity against Staphylococcus haemolyticus; type: functional
Staphylococcus aureus [6] = assay: Antibacterial activity against Staphylococcus aureus; type: functional, organism-based
[7] = tested on: Staphylococcus epidermidis; assay: Antibacterial activity against Staphylococcus epidermidis; type: functional
Staphylococcus aureus [8] = assay: Antibacterial activity against methicillin-resistant Staphylococcus aureus; type: functional, organism-based
RAW = assay: Inhibition of nitric oxide production in LPS-stimulated mouse RAW 264.7 cells; type: functional, cell-based
Plasmodium falciparum [9] = assay: Antiplasmodial activity against multiresistant Plasmodium falciparum Dd2 by [3H]hypoxanthine incorporation; type: functional, organism-based
[10] = tested on: Human immunodeficiency virus 1; assay: Inhibition of HIV1 reverse transcriptase production in human C8166 lymphocytes; type: functional, organism-based; details: Human immunodeficiency virus 1, C8166
[11] = tested on: Human immunodeficiency virus 1; assay: Inhibition of HIV1 p24 antigen production in human C8166 lymphocytes; type: functional, organism-based; details: Human immunodeficiency virus 1, C8166
Plasmodium falciparum [12] = assay: Antiplasmodial activity against chloroquine-sensitive Plasmodium falciparum poW by [3H]hypoxanthine incorporation; type: functional, organism-based
[13] = tested on: Human immunodeficiency virus 1; assay: Antiviral activity against HIV1 3B assessed as inhibition of p24 antigen production in human PBMCs; type: functional, organism-based; details: Human immunodeficiency virus 1, 3B
Plasmodium falciparum [14] = assay: Inhibition of ring to schizont stage maturation in Plasmodium falciparum NF54 at 10 ug/mL; type: functional
Plasmodium falciparum [15] = assay: Inhibition of ring to schizont stage maturation in Plasmodium falciparum NF54 at 50 ug/mL; type: functional
Plasmodium falciparum [16] = assay: Antiplasmodial activity against chloroquine-sensitive Plasmodium falciparum D6; type: functional, organism-based
Plasmodium falciparum [17] = assay: Antiplasmodial activity against chloroquine-resistant Plasmodium falciparum W2; type: functional, organism-based
Plasmodium falciparum [18] = assay: Antimalarial activity against chloroquine-resistant Plasmodium falciparum K1 by [3H]hypoxanthine incorporation; type: functional, organism-based
Trypanosoma cruzi = assay: Growth inhibition of Trypanosoma cruzi epimastigotes; type: functional, organism-based
Colletotrichum truncatum [19] = assay: Antifungal activity against Colletotrichum capsici; type: functional
Leishmania donovani [20] = assay: Inhibition of Leishmania donovani amastigotes in human monocyte-derived macrophages; type: functional, organism-based
Leishmania major = assay: Growth inhibition of Leishmania major promastigotes assessed as [3H]thymidine incorporation; type: functional, organism-based
Leishmania donovani [21] = assay: Antileishmanial activity against Leishmania donovani amastigotes in mouse macrophages at 50 ug/mL; type: functional
Leishmania donovani [22] = assay: Antileishmanial activity against Leishmania donovani promastigotes at 50 ug/mL; type: functional
Plasmodium falciparum [23] = assay: Antimalarial activity against Plasmodium falciparum; type: functional, organism-based
Plasmodium falciparum [24] = assay: Inhibition of ring to schizont stage maturation in Plasmodium falciparum NF54 at 2 ug/mL; type: functional
Neutrophil [25] = assay: Superoxide radical scavenging activity in stimulated human neutrophils; type: functional, cell-based
[26] = Superoxide radical scavenging activity by hypoxanthine / xanthine oxidase system; type: functional
Candida albicans = assay: Antifungal activity against Candida albicans; type: functional, organism-based
Cryptococcus neoformans = assay: Antifungal activity against Cryptococcus neoformans; type: functional, organism-based
Trichophyton rubrum = assay: Antifungal activity against Trichophyton rubrum; type: functional

Q: For `COc1ccc(C(=O)/C=C/c2ccccc2)c(O)c1`, which inhibition at 12.5 µg/mL [1] is on record?
A: Its inhibition at 12.5 µg/mL is 78%.

Q: For `COc1c(O)ccc(C(=O)/C=C/c2ccccc2)c1O` [LARREIN], which MIC (Diaporthe longicolla) is on record?
A: Its MIC is 6.25 µg/mL (≈ 23.1 µM).

Q: What about the MIC (Colletotrichum truncatum [2]) of the same molecule?
A: Its MIC is 6.25 µg/mL (≈ 23.1 µM).

Q: With `O=C(/C=C/c1ccccc1O)c1ccccc1O` as the molecule, how does the pIC50 (Neutrophil [3]) read?
A: The pIC50 was 5.80.

Q: What about the pIC50 (Neutrophil [4]) of the same molecule?
A: Its pIC50 is 5.85.

Q: Which MIC [5] does the source give for `O=C(/C=C/c1ccc(O)cc1)c1ccc(O)cc1O` [ISOLIQUIRITIGENIN] here?
A: The MIC was 250 µg/mL (≈ 976 µM).

Q: What about the MIC (Staphylococcus aureus [6]) of the same molecule?
A: Its MIC is 250 µg/mL (≈ 976 µM).

Q: And the MIC [7]?
A: The MIC was 250 µg/mL (≈ 976 µM).

Q: With `COc1cc(O)c(C(=O)CCc2ccc(O)cc2)c(O)c1` [ASEBOGENIN] as the molecule, how does the IC50 (Staphylococcus aureus [6]) read?
A: Its IC50 is 10 µg/mL (≈ 34.7 µM).

Q: What about the IC50 (Staphylococcus aureus [8]) of the same molecule?
A: The IC50 was 4.5 µg/mL (≈ 15.6 µM).

Q: With `COc1ccc(OC)c(C(=O)/C=C/c2ccc(N(C)C)cc2)c1` as the molecule, how does the pIC50 (RAW) read?
A: The pIC50 was 6.15.

Q: With `COc1cc(O)c(CC=C(C)C)c(O)c1C(=O)/C=C/c1ccc(O)cc1` [XANTHOHUMOL] as the molecule, how does the pIC50 (Plasmodium falciparum [9]) read?
A: The pIC50 was 4.62.

Q: What about the EC50 [10] of the same molecule?
A: The EC50 was 0.5 µg/mL (≈ 1.41 µM).

Q: And the EC50 [11]?
A: Its EC50 is 1.28 µg/mL (≈ 3.61 µM).

Q: And the pIC50 (Plasmodium falciparum [12])?
A: The pIC50 was 5.09.

Q: What about the EC50 [13] of the same molecule?
A: The EC50 was 20.7 µg/mL (≈ 58.5 µM).

Q: What does the source list for `COc1cc(/C=C/C(=O)c2ccc(O)c(CC=C(C)C)c2O)ccc1O` [CROTAORIXIN]?
A: inhibition at 10 µg/mL (Plasmodium falciparum [14]): 100%; inhibition at 50 µg/mL (Plasmodium falciparum [15]): 100%

Q: With `O=C(/C=C/c1ccccc1)c1ccc(Cl)cc1O` as the molecule, how does the inhibition at 12.5 µg/mL [1] read?
A: Its inhibition at 12.5 µg/mL is 89%.

Q: With `COc1cc(/C=C/C(=O)c2ccc(O)cc2O)ccc1O` [HOMOBUTEIN] as the molecule, how does the pIC50 (Plasmodium falciparum [16]) read?
A: Its pIC50 is 4.99.

Q: What about the pIC50 (Plasmodium falciparum [17]) of the same molecule?
A: The pIC50 was 4.99.

Q: With `COc1ccc(C(=O)/C=C/c2ccc(Cl)cc2Cl)c(OC)c1OC` as the molecule, how does the pIC50 (Plasmodium falciparum [18]) read?
A: The pIC50 was 5.19.

Q: With `O=C(/C=C/c1ccc(Cl)cc1)c1ccccc1` [4-CHLORO CHALCONE] as the molecule, how does the pIC50 (Trypanosoma cruzi) read?
A: The pIC50 was 4.66.

Q: Which MIC (Colletotrichum truncatum [19]) does the source give for `Cc1ccc(/C=C/C(=O)c2ccc(C)cc2)cc1` [4,4'-DIMETHYLCHALCONE] here?
A: The MIC was 6.25 µg/mL (≈ 26.4 µM).

Q: With `CN(C)c1ccc(/C=C/C(=O)c2ccc(O)cc2)cc1` as the molecule, how does the pIC50 (Plasmodium falciparum [18]) read?
A: Its pIC50 is 4.70.

Q: What does the source list for `COc1ccc(/C=C/C(=O)c2ccccc2)c(OC)c1`?
A: pIC50 (Leishmania donovani [20]): 6.19; pIC50 (Leishmania major): 5.40

Q: With `O=C(/C=C/c1ccc(F)cc1F)c1ccc(O)cc1O` as the molecule, how does the pIC50 (Plasmodium falciparum [18]) read?
A: The pIC50 was 4.70.

Q: What does the source list for `CC1(C)C=Cc2c(ccc(C(=O)/C=C/c3ccc(O)cc3)c2O)O1`?
A: Activity (Leishmania donovani [21]): 74%; Activity (Leishmania donovani [22]): 84%

Q: Which inhibition at 12.5 µg/mL [1] does the source give for `O=C(/C=C/c1ccccc1)c1ccccc1O` [2'-HYDROXYCHALCONE] here?
A: Its inhibition at 12.5 µg/mL is 61%.

Q: With `COc1cc(/C=C/C(=O)c2ccc(NC(=O)Nc3ccc(Cl)cc3)cc2)cc(OC)c1OC` as the molecule, how does the pIC50 (Plasmodium falciparum [23]) read?
A: The pIC50 was 5.75.

Q: For `CC(C)=CCc1cc(C(=O)/C=C/c2ccc(O)cc2)c(O)c(CC=C(C)C)c1O` [MEDICAGENIN], which inhibition at 2 µg/mL (Plasmodium falciparum [24]) is on record?
A: Its inhibition at 2 µg/mL is 100%.

Q: With `COc1ccc(/C=C/C(=O)c2ccc(OC)cc2OC)c(OC)c1` as the molecule, how does the pIC50 (Plasmodium falciparum [18]) read?
A: Its pIC50 is 5.19.

Q: With `O=C(Nc1ccc(Cl)cc1)Nc1ccc(C(=O)/C=C/c2ccc(Cl)cc2Cl)cc1` as the molecule, how does the pIC50 (Plasmodium falciparum [23]) read?
A: The pIC50 was 5.75.

Q: With `COc1ccc(C(=O)/C=C/c2ccc(N(C)C)cc2)cc1OC` as the molecule, how does the pIC50 (Neutrophil [25]) read?
A: The pIC50 was 7.00.

Q: What about the pIC50 [26] of the same molecule?
A: The pIC50 was 6.52.

Q: Which IC50 (Candida albicans) does the source give for `CC(C)=CCc1c(O)ccc(C(=O)/C=C/c2ccc(O)cc2)c1O` [ISOBAVACHALCONE] here?
A: Its IC50 is 3 µg/mL (≈ 9.25 µM).

Q: And the IC50 (Cryptococcus neoformans)?
A: The IC50 was 7 µg/mL (≈ 21.6 µM).

Q: With `COc1cc(O)c(C(=O)/C=C/c2ccccc2Cl)c(OC)c1` as the molecule, how does the MIC (Trichophyton rubrum) read?
A: The MIC was 12.5 µg/mL (≈ 39.2 µM).

Q: With `COc1cccc(OC)c1C(=O)/C=C/c1ccc(N(C)C)cc1` as the molecule, how does the pIC50 (RAW) read?
A: The pIC50 was 6.22.

Q: With `COc1ccc(C(=O)/C=C/c2ccc(F)cc2F)c(OC)c1` as the molecule, how does the pIC50 (Plasmodium falciparum [18]) read?
A: Its pIC50 is 5.19.
